Data from patent publication US9517221B2, “(2R)-2-propyloctanoic acid for functional brain disease” (ONO PHARMACEUTICAL CO., LTD., priority 2006, dated 2016).

Columns and labels:
[1] = system: olfactory bulbectomized rats; test: Influence upon anxiolytic behavior on an elevated plus maze in olfactory bulbectomized rats (Test Example 4-3); assay type: in vivo, rat; conditions: once a day for 8 days; test 2 hours after administration; present tense
Description: Wistar male rats are used in the test. By fixing the head of each rat under pentobarbital sodium anesthesia to a brain stereotaxic apparatus, the head skin is incised and then holes are opened at right and left olfactory bulb regions using a dental drill to suck and remove the right and left olfactory bulbs using an aspirator. The head skin is stitched thereafter. In this connection, the suction and removal of olfactory bulbs are not carried out in the sham-operation group, and the head skin is stitched after opening holes at right and left olfactory bulb regions. […]
An elevated plus maze apparatus consisting of a open arm without a wall and a closed arm having a wall is used in the test. […] The anxiolytic behavior is analyzed from the pictures of a video camera by a video picture behavior analysis device.
The vehicle and test drug are repeatedly administered once a day for 8 days. […] After 2 hours of the administration, the animal is softly put on the platform toward one of the open arms and measured for 5 minutes. […] The items (1) to (6) shown below are measured using the video picture behavior analysis device, and (7) and (8) are counted after completion of the measurement. […]

[2] = system: Wistar male rats; test: Confirmation test of anti-stress activity (Test Example 2); assay type: in vivo, rat; conditions: oral, 30 minutes before stress loading; counted 1 hour thereafter; present tense
[3] = system: Wistar male rats; test: Rat learned helplessness test (Test Example 3); assay type: in vivo; conditions: oral once a day for 6 days and 1 hour before shock training on 7th day; present tense
Protocol: A learned helplessness test is carried out using a two way type shuttle box which is divided into two by a gate which can be opened and closed so that shift to right and left is possible. Wistar male rats are used in the test, and a shock training is carried out on the 1st day of the test. The shock training is carried out by putting the rats in the apparatus under an inescapable condition by closing the gate, and applying an electric shock (10 seconds×90 times, intervals of 2 seconds) through a floor grid. In this connection, the rats of the control group are not treated with the electric shock and allowed to stay free in the apparatus for the same period of time. An escape test is carried out after 24 hours of the shock training. The escape test is carried out by putting the rats in the apparatus under an escapable condition by opening the gate, and after 5 minutes of adaptation, by applying a light stimulation and a sound stimulation (conditional stimulation) simultaneously for 5 seconds and subsequently applying an electric shock (no conditional stimulation) for 10 seconds. By regarding a case of no escaping and continuously receiving the electric shock as escape failure, this trial is repeated 40 times (intervals of 5 seconds), and behavior of the rats is analyzed by a behavior analysis software (MED-PC Version 1.16). […]

[4] = system: olfactory bulbectomized rats; test: Influence on hyperemotional score in olfactory bulbectomized rats (Test Example 4-2); assay type: in vivo, rat; conditions: oral once a day for 7 days; present tense
Description: Wistar male rats are used in the test. By fixing the head of each rat under pentobarbital sodium anesthesia to a brain stereotaxic apparatus, the head skin is incised and then holes are opened at right and left olfactory bulb regions using a dental drill to suck and remove the right and left olfactory bulbs using an aspirator. The head skin is stitched thereafter. In this connection, the suction and removal of olfactory bulbs are not carried out in the sham-operation group, and the head skin is stitched after opening holes at right and left olfactory bulb regions. The rats after extraction of the olfactory bulbs are put into a series of five stainless steel cages, each of which is partitioned into two parts with an acrylic board for individual rearing space, and individually reared for 2 weeks under a dark condition, and then subjected to the following tests of <4-2> and <4-3>.
The vehicle and test drug are orally administered once a day repeatedly for 7 days. The evaluation is carried out under a quiet environment, before the grouping and on the 1st and 7th days after administration of the test drug. The degree of irritability is scored in accordance with the evaluation criteria shown below, before the grouping and before the administration of 7 days test drug administration, and after 1 hour of the administration of test drug administration of 1 day and 7 days. […]

## CCCCCC[C@@H](CCC)C(=O)O [(2R)-2-propyloctanoic acid]
[1]
  Anxiolytic behavior versus vehicle treating group: suppresses the anxiolytic behavior
[2]
  Number of defecations versus vehicle treating group: significantly suppress the number of defecations
[3]
  Number of escape failures versus vehicle treating group: inhibits increase of the number of escape failures
[4]
  Development of hyperemotionality versus vehicle group: inhibits development of hyperemotionality
